These results are taken from patent US20210177814A1, “USE OF GUANABENZ OR DERIVATES THEREOF FOR THE TREATMENT OF TYPE I IFN-DEPENDENT PATHOLOGIES” (INSERM (Institut National de la Santé et de la Recherche …, priority 2018, published 2021).

One data set deals with T1, TLR9 (Mus musculus, UniProt Q9EQU3).
T1 construct: from tissue; host or cells: whole animal: C57BL/6, FVB and FVB GADD34ΔC/ΔC mice
T1 sequence (Q9EQU3 26-1032): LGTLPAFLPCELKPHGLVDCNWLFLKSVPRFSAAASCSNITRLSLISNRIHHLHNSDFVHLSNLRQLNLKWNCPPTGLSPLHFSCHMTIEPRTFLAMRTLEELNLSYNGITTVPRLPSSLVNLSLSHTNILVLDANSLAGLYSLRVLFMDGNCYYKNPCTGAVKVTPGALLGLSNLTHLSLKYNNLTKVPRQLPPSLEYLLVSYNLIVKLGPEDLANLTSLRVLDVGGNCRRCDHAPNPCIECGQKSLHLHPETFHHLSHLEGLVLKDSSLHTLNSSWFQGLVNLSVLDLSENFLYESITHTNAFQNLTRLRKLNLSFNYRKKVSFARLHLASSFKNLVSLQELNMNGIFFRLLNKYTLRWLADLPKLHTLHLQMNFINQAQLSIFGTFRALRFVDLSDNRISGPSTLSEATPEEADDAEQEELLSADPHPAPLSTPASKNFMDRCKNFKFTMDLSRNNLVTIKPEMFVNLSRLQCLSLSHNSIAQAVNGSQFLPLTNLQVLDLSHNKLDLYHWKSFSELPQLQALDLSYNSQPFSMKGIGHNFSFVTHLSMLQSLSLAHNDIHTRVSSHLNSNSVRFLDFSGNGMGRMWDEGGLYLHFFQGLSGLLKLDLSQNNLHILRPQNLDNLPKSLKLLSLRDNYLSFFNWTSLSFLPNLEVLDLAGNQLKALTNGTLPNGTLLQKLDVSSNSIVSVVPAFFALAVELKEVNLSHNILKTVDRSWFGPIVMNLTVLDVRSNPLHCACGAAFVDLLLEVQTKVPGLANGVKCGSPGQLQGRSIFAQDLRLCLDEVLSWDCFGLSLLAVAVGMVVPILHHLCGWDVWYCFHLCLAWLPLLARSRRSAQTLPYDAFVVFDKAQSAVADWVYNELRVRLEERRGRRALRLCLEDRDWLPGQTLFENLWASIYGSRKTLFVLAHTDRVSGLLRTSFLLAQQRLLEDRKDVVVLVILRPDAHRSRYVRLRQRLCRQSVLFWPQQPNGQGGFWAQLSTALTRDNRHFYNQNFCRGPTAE
The experiment in a line: D-galN/CpG ODN 1826 cytokine shock model. In kind it is in vivo. On the procedure:
WT and GADD34^ΔC/ΔC mice were injected with D-galN (20 mg/mouse), CpG ODN 1826 or PBS for control mice (50 μg/20 g), GBZ or clonidine (2 mg/kg). (A) Survival of C57/BL6 mice is represented as total percentage of survival after 48 h or in a Kaplan-Meier plot. (B) Survival of FVB (WT) and FVB GADD34^ΔC/ΔC mice is represented as total percentage of survival after 48 h or in a Kaplan-Meier plot. (C) The concentration of circulating TNF-α, IL-10 and IL-6 in C57/BL6 mice was measured after 1 h and/or 3 h of CpG ODN 1826. (D) Liver tissue damage and histology score were blindly determined by a professional anatomopathologist. Statistical significance was assigned on sample comparison by a one-way ANOVA, followed by Tukey range test and on the survival curve using log-rank test, followed by Benjamini-Yekutieli correction (* p<0.05; ** p<0.005; ***p<0.0005.).
Wild type female mice C57BL/6 of 8 weeks of age were injected i.p. with 2 mg/kg of GBZ, clonidine or PBS/DMSO. One hour later, they were injected i.p. with 20 mg/mouse of d-GalN and ODN 1826 50 μg/20 g (or PBS). Mice survival was checked every 12 hours for up to 48 hours. For some experiments, blood sera were collected 1 and 3 h after the injection of D-galN. The serum was used to measure circulating cytokines (TNFα, IL-6, IFNβ IL-10, IL-12). For some experiments, the liver was collected for immunohistochemistry after two days. For i.p. injections, 1 ml syringes and 25 gauge needles were used. Blood was collected from the cheek with a 18 gauge needle; for the TMPD model, no more than 200 μL were collected each time, respecting the ethic statement.
Mouse kidney and liver were fixed in 10% buffered formalin for 24 h, then the tissues were dehydrated and embedded in paraffin. Tissue sections of 3.5 μm were cut using the microtom Leica RM2245. Hematoxylin-eosin staining was effectuated automatically with Leica autostainer XL. Finally, the slides were mounted with entellan and kept at room temperature. Biopsies were analyzed by an anatomopathologist and the clinical score was assigned in a blinded way. Pictures were taken with Nikon Eclipse.
• a) Lobular inflammation • 0—no inflammation, 1—mild lobular inflammation (<10% of liver parenchyma), 2—moderate lobular inflammation (10-50% of liver parenchyma), 3—severe lobular inflammation (>50% of liver parenchyma) • b) Portal inflammation • 0—no portal inflammation, 1—mild portal inflammation (<⅓ of portal tracts), 2—moderate portal inflammation (approximately 50% of portal tracks), 3—severe portal inflammation (>⅔ of portal tracts) • Portal and lobular inflammation score are added=inflammation score • c) Necrosis • 0—No necrosis, 1—<10% necrosis of liver parenchyma, 2—10-25% necrosis of liver parenchyma, 3—25% necrosis of liver parenchyma • Inflammation score and necrosis score are added=Total histologic score

The conditions of data set [1]: mouse, cited from earlier work.
[2] abbreviates: WT mice, 1 hour after CpG injection, 2 mg/kg.

Regarding `NC(N)=N/N=C/c1c(Cl)cccc1Cl` [GBZ, 2-(2,6-dichlorobenzylidene)-hydrazinecarboximidamide], the “survival after 48 h” value at TLR9 (C57BL/6 WT mice, D-galN + CpG ODN 1826, compound 2 mg/kg i.p.) was “up to 70%”. In addition, the “liver cells survival (liver examination and histological scores)” value at TLR9 (CpG-induced lethality, GBZ 2 mg/kg) is given as “little direct protective effect”. At TLR9 (FVB GADD34ΔC/ΔC mice, D-galN + CpG, GBZ 2 mg/kg), the survival entry was “protected from death”. The “decrease in efficiency of protection in GADD34ΔC/ΔC mice” value on TLR9 (GADD34ΔC/ΔC vs WT mice, GBZ 2 mg/kg) is reported as about 28%. Also, the “production of IL-10” value on TLR9 (WT mice after CpG injection, GBZ 2 mg/kg) is “strongly increased”. Besides, at TLR9 (setting [2]), the “circulating IL-6 plasma concentration” value is recorded as “strongly attenuated” and the “circulating TNF-α plasma concentration” value was “strongly attenuated”. Further, in data set [1] (several hours after single i.p. bolus 2 mg/kg), the spinal cord accumulation entry is “approximately 7 μM”. The plasma half-life in data set [1] (single i.p. bolus 2 mg/kg) was 1.8 h.
